Measured values from ChEMBL document CHEMBL1136472, “3-iodo-4-phenoxypyridinones (IOPY's), a new family of highly potent non-nucleoside inhibitors of HIV-1 reverse transcriptase” (Bioorg Med Chem Lett, 2003).

Experiments:
[1] = tested on: MT4; test: Anti-HIV-1 activity against […] strain was determined in MT-4 cells by the MTT method; format: functional, cell-based; conditions: Homo sapiens
[2] = tested on: MT4; test: Anti-HIV-1 activity against K103N strain in MT-4 cells by the MTT method; format: functional, cell-based; conditions: Homo sapiens
[3] = tested on: MT4; test: Anti-HIV-1 activity against K103N+[…] strain was determined in MT-4 cells by the MTT method; format: functional, cell-based; conditions: Homo sapiens
[4] = tested on: MT4; test: Anti-HIV-1 activity against K103N+Y181C strain was determined in MT-4 cells by the MTT method; format: functional, cell-based; conditions: Homo sapiens
[5] = tested on: MT4; test: Anti-HIV-1 activity against LAI strain in MT-4 cells by the MTT method; format: functional, cell-based; conditions: Homo sapiens
[6] = tested on: MT4; test: Anti-HIV-1 activity against Y181C strain, in MT-4 cells by the MTT method; format: functional, cell-based; conditions: Homo sapiens
[7] = tested on: MT4; test: Anti-HIV-1 activity against Y188L strain was determined in MT-4 cells by the MTT method; format: functional, cell-based; conditions: Homo sapiens
[8] = Selectivity index is the ratio of 50% cytotoxic concentration to IC50 against LAI strain in MT-4 cells by the MTT method was determined; format: functional, MT4
[9] = tested on: MT4; test: Anti-HIV-1 activity against LAI strain in MT-4 cells.; format: functional, cell-based; conditions: Homo sapiens

SMILES | IC50 [1] | IC50 [2] | IC50 [3] | IC50 [4] | IC50 [5] | IC50 [6] | IC50 [7] | SI [8] | IC50 [9]
O=C1Nc2ccc(Cl)cc2[C@@](C#CC2CC2)(C(F)(F)F)O1 [EFAVIRENZ] | 2 nM | 40 nM | > 10000 nM | 40 nM | 1 nM | 40 nM | 200 nM | – | –
CCOCn1c(Cc2cc(C)cc(C)c2)c(C(C)C)c(=O)[nH]c1=O | – | 40 nM | – | – | 1 nM | 180 nM | – | 52000 | –
CCc1c(Oc2cc(C)cc(C)c2)cc(=O)[nH]c1C | – | – | – | – | 500 nM | – | – | 200 | –
CCc1c(C)nc(O)c(I)c1Oc1ccccc1 | – | 40 nM | – | – | 1.6 nM | 316 nM | – | 63000 | –
CCc1c(C)nc(O)c([N+](=O)[O-])c1Oc1cc(C)cc(C)c1 | – | 100 nM | – | – | 4 nM | 158 nM | – | 2500 | –
CC(C)Nc1cccnc1N1CCN(C(=O)c2cc3cc(NS(C)(=O)=O)ccc3[nH]2)CC1 [DELAVIRDINE] | 1900 nM | – | > 10000 nM | > 10000 nM | – | – | – | – | –
CCc1c(C)[nH]c(=O)c(I)c1Oc1cc(C)cc(C)c1 | 6 nM | 3 nM | 20 nM | 40 nM | 1.3 nM | 20 nM | 45 nM | 9000 | –
O=c1[nH]c(=O)n(COCCO)c(Sc2ccccc2)c1I | – | – | – | – | – | – | – | – | 3600 nM
CCc1c(C)[nH]c(=O)c(N(C)C)c1Cc1cc(C)cc(C)c1 | 50 nM | 32 nM | – | 800 nM | 8 nM | 100 nM | 300 nM | 12500 | –
CCOCn1c(Cc2ccccc2)c(C(C)C)c(=O)[nH]c1=O [EMIVIRINE] | – | 32 nM | – | – | 8 nM | 100 nM | – | 12500 | –
CCc1c(C)nc(O)c(I)c1Oc1cccc(C)c1 | – | 32 nM | – | – | 1.6 nM | 51 nM | – | 19900 | –
CCc1c(C)nc(O)c(N(C)C)c1Oc1cc(C)cc(C)c1 | – | 50 nM | – | – | 4 nM | 158 nM | – | 25000 | –
